For orientation: IC50 means the midpoint of a concentration-inhibition curve. A low value points to inhibition by little substance.

Where only a bound is given, the exact number is not on record here.

Here are results for 17 molecules from patent US20050238642A1, “Modified bouganin proteins, cytotoxins and methods and uses thereof” (priority 2004, published 2005).

The subject of one test is HMEC. In words: MTS cytotoxicity assay. The test is classed as cell-based, human. The settings on record: Ep-CAM-negative HMEC, 5 days. The procedure: The tumour cell lines used in this study were purchase from ATCC and were propagated following ATCC's recommendations except for the cell lines C-41, TOV-112D which were grown in RPMI 1640 or DMEM supplemented with 10% FCS, respectively. Tumor cells were harvested at 60-70% confluence with viability over 90%. The human normal mammary epithelial cells (HMEC) were purchased from CAMBREX and maintained in specified media according to the procedure provided by CAMBREX. The cells were harvested at 70% confluence with viability over 90%.
(§1) The MTS assay was preformed using standard techniques known in the art. More particularly, 50 microlitres of cells (2×10^4 cells/ml) were seeded per well and plates were incubated at 37° C. under 5% CO2 for 2 hr. Then 50 microlitres of spiked drug (i.e. construct to be tested or control) was added to the culture medium at increasing concentrations. Culture medium, with or without cells, was used as positive and negative controls, respectively. The plates were left at 37° C. under 5% CO2 for 5 days. At day 5, the inhibition of cell proliferation was evaluated by adding 20 microlitres of MTS reagent (Promega, Cat# G5430). The plates were further incubated at 37° C. under 5% CO2 for 2 hr and ODs were read at 490 nm using the plate reader spetrophotometer. Background values were subtracted from the sample values obtained for each concentration and the results were expressed as a percent of viable cells. The IC50 values for each drug were calculated for each cell line.

A further test has as its system DAUDI. In words: MTS cytotoxicity assay. The test is classed as cell-based. The settings on record: Ep-CAM-negative DAUDI, 5 days. The procedure:
as §1

In a further test the test system is A-375. In words: MTS cytotoxicity assay. The format is cell-based. The settings on record: Ep-CAM-negative A-375, MTS, 5 days. The procedure: as §1
A general note: Tetrazolium dyes change colour on reduction, which living cells bring about.

Another test has as its system NIH:OVCAR-3. In words: MTS cytotoxicity assay. The test is classed as cell-based. The settings on record: Ep-CAM-positive NIH:OVCAR-3, MTS, 5 days. The procedure: The MTS assay used to measure potency was conducted using standard technique known in the art, and as more fully described below in Example 8. […] In the case of VB6-845-CL-de-bouganin, the potency was measured at 1 to 2 nM for CAL 27 and 0.6 to 0.7 nM versus NIH:OVCAR-3.
as §1

Test [1] relates to PBMCs (peripheral blood mononuclear cells) from naive donors. In words: Naive human T-cell proliferation assay (3H-thymidine incorporation, stimulation index). The test is classed as cell-based. The settings on record: for presence of T cell epitope: compilation of 20 donors, 1 μM and 5 μM; for responsive donors: of 20 donor PBMC samples; for T cell proliferation (in words): compared with peptide 44. The procedure:
Accordingly, in the present studies, 89 synthetic 15-mer peptides (as listed in Table 1) were used in T-cell proliferation assays with PBMCs (peripheral blood mononuclear cells) from naive donors (i.e. no known sensitization to bouganin). 20 donor PBMC samples were selected to achieve an optimal coverage of MHC class II allotypes. PBMCs were stimulated with individual peptides in triplicate cultures for 7 days before proliferation was assessed by ^3H-thymidine incorporation. All peptides were diluted at two different concentrations: 1 μM and 5 μM. The stimulation indices (SI) were calculated as the amount of ^3H incorporated into the cells, divided by the amount of ^3H incorporated in mock-stimulated controls.
The peptides were used in T-cell proliferation assays with PBMCs (peripheral blood mononuclear cells) from naive donors (i.e. no known sensitization to bouganin). 20 donor PBMC were selected to get an optimal coverage of MHC class II allotypes. The allotypic coverage is in excess of 85%.
PBMCs were stimulated with individual peptides in triplicate cultures for 7 days before proliferation was assessed by ^3H-thymidine (^3H-Thy) incorporation. All peptides were tested at two different concentrations (1 μM and 5 μM). Stimulation indices (S.I.) were calculated as the amount of ^3H incorporated, divided by the amount of ^3H incorporated in mock-stimulated control cells.
Buffy coats from human blood stored for less than 12 hours were obtained from the National Blood Service (Addenbrooks Hospital, Cambridge, UK). Ficoll-paque was obtained from Amersham Pharmacia Biotech (Amersham, UK). Serum free AIM V media for the culture of primary human lymphocytes and containing L-glutamine, 50 μg/ml streptomycin, 10 μg/ml gentomycin and 0.1% human serum albumin was from Gibco-BRL (Paisley, UK). Synthetic peptides were obtained from Eurosequence (Groningen, The Netherlands) and Babraham Technix (Cambridge, UK).
Erythrocytes and leukocytes were separated from plasma and platelets by gentle centrifugation of buffy coats. The top phase (containing plasma and platelets) was removed and discarded. Erythrocytes and leukocytes were diluted 1:1 in phosphate buffered saline (PBS) before layering onto 15 ml ficoll-paque (Amersham Pharmacia, Amersham UK). Centrifugation was done according to the manufacturers recommended conditions and PBMCs were harvested from the serum+PBS/ficoll paque interface. PBMCs were mixed with PBS (1:1) and collected by centrifugation. The supernatant was removed and discarded and the PBMC pellet resuspended in 50ml PBS. Cells were again pelleted by centrifugation and the PBS supernatant discarded. Cells were resuspended using 50 ml AIM V media and at this point counted and viability assessed using trypan blue dye exclusion. Cells were again collected by centrifugation and the supernatant discarded. Cells were resuspended for cryogenic storage at a density of 3×10^7 per ml. The storage medium was 90% (v/v) heat inactivated AB human serum (Sigma, Poole, UK) and 10% (v/v) DMSO (Sigma, Poole, UK). Cells were transferred to a regulated freezing container (Sigma) and placed at −70° C. overnight. When required for use, cells were thawed rapidly in a water bath at 37° C. before transferring to 10ml pre-warmed AIM V medium.
PBMC were stimulated with protein and peptide antigens in a 96 well flat bottom plate at a density of 2×10^5 PBMC per well. PBMC were incubated for 7 days at 37° C. before pulsing with ^3H-Thy (Amersham-Pharmacia, Amersham, UK). […] C-32=sequence […] from Flu haemagglutinin residues 307-319 (SEQ ID NO:127). C-49=sequence […] from Chlamydia HSP 60 (SEQ ID NO:128).
Peptides were dissolved in DMSO to a final concentration of 10 mM, these stock solutions were then diluted 1/500 in AIM V media (final concentration 20 μM). Peptides were added to a flat bottom 96 well plate to give a final concentration of 1 and 5 μM in 100 μl. […]
For orientation: Uptake of a labelled nucleoside into DNA is a usual measure of proliferation.

With `Cc1c(N)nc([C@H](CC(N)=O)NC[C@H](N)C(N)=O)nc1C(=O)N[C@H](C(=O)N[C@H](C)[C@@H](O)[C@H](C)C(=O)N[C@H](C(=O)NCCc1nc(-c2nc(C(=O)NCCCNCCCCN)cs2)cs1)[C@@H](C)O)[C@@H](O[C@@H]1O[C@@H](CO)[C@@H](O)[C@H](O)[C@@H]1O[C@@H]1O[C@H](CO)[C@@H](O)[C@H](OC(N)=O)[C@@H]1O)c1cnc[nH]1` [Bleomycin A5], the IC50 in the test on HMEC came out at 1000 nM; in the test with DAUDI, 130 nM; in the test on A-375 it was 290 nM; in the test on NIH:OVCAR-3, 150 nM.

`N.N.O=C([O-])C1(C(=O)[O-])CCC1.[Pt+2]` [Carboplatin]: the IC50 with HMEC, in the test with DAUDI, in the test on A-375 and in the test with NIH:OVCAR-3 was more than 1000 nM in each case.

As to `O=C(O)CCCc1ccc(N(CCCl)CCCl)cc1` [Chlorambucil], the IC50 in the test with HMEC (Homo sapiens, 120 h) was more than 1000 nM; with DAUDI (Homo sapiens, 120 h) it was more than 1000 nM; in the test with A-375 (Homo sapiens, 120 h), more than 1000 nM; in the test on NIH:OVCAR-3 (Homo sapiens, 120 h) it was more than 1000 nM.

Take `N.N.[Cl][Pt][Cl]` [Cisplatin]: the concentration for half-maximal inhibition (IC50) in the test with HMEC, in the test on DAUDI, in the test on A-375 and in the test with NIH:OVCAR-3 was more than 1000 nM each time.

Take `O=P1(N(CCCl)CCCl)NCCCO1` (centres unmarked) [Cyclophosphamide]: the IC50 is more than 1000 nM with HMEC (Homo sapiens, 120 h); more than 1000 nM in the test with DAUDI (Homo sapiens, 120 h); more than 1000 nM with A-375 (Homo sapiens, 120 h); more than 1000 nM in the test with NIH:OVCAR-3 (Homo sapiens, 120 h).

As to `COc1cccc2c1C(=O)c1c(O)c3c(c(O)c1C2=O)C[C@@](O)(C(=O)CO)C[C@@H]3O[C@H]1C[C@H](N)[C@H](O)[C@H](C)O1` [Doxorubicin], the IC50 in the test on HMEC (Homo sapiens, 120 h) was 16 nM; with A-375 (Homo sapiens, 120 h), 2.8 nM; in the test with NIH:OVCAR-3 (Homo sapiens, 120 h), 3 nM.

On to `COc1cc([C@@H]2c3cc4c(cc3[C@@H](O[C@@H]3O[C@@H]5CO[C@@H](C)O[C@H]5[C@H](O)[C@H]3O)[C@H]3COC(=O)[C@H]23)OCO4)cc(OC)c1O` [Etoposide], for which the IC50 in the test with HMEC (Homo sapiens, 120 h) is 600 nM; with DAUDI (Homo sapiens, 120 h), 1.7 nM; in the test on A-375 (Homo sapiens, 120 h), 280 nM; in the test on NIH:OVCAR-3 (Homo sapiens, 120 h), 210 nM.

For the molecule `O=c1[nH]cc(F)c(=O)[nH]1` [Fluorouracil], the IC50 in the test on HMEC (Homo sapiens, 120 h) is more than 1000 nM; in the test on DAUDI (Homo sapiens, 120 h), more than 1000 nM; with A-375 (Homo sapiens, 120 h), more than 1000 nM; in the test with NIH:OVCAR-3 (Homo sapiens, 120 h) it was more than 1000 nM.

With `CCc1c2c(nc3ccc(OC(=O)N4CCC(N5CCCCC5)CC4)cc13)-c1cc3c(c(=O)n1C2)COC(=O)[C@]3(O)CC` [Irinotecan], the IC50 in the test with HMEC (Homo sapiens, 120 h) is 1000 nM; in the test on DAUDI (Homo sapiens, 120 h), 190 nM; with A-375 (Homo sapiens, 120 h) it was 900 nM; in the test on NIH:OVCAR-3 (Homo sapiens, 120 h), 180 nM.

On to “AKVDRKDLELGVYKL [peptide 41, bouganin 15-mer peptide, first amino acid 121]”, for which, in test [1], the “presence of T cell epitope” value was “T cell epitopes”. Also, the “S.I. (stimulation index)” value in test [1] (donor 4, peptide at 5 μM) was 3.6; in test [1] (donor 5, peptide at 5 μM) it was 4.9; in test [1] (donor 10, peptide at 5 μM), 2.1; in test [1] (donor 11, peptide at 5 μM), 2.0. Also, the responsive donors entry in test [1] is reported as “four”.

In the case of “DLELGVYKLEFSIEA [compound 43, bouganin 15-mer peptide, first amino acid 127]”, the “T cell proliferation (in words)” value in test [1] is “lower level T cell proliferation”.

Consider “EIAKFFLIVIQMVSE [peptide 51, bouganin 15-mer peptide, first amino acid 151]”, for which the “S.I. (stimulation index)” value in test [1] (donor 14) is on record as more than 1.9.

“IVEDLDGDELEILEP [peptide 88, 15-mer peptide of the unprocessed form of bouganin, first amino acid 261]”: the “presence of T cell epitope” value in test [1] was “T cell epitopes”.

Regarding “LGVYKLEFSIEAIHG [peptide 44, bouganin 15-mer peptide, first amino acid 130]”, in test [1], the “presence of T cell epitope” value is on record as “T cell epitopes” and the responsive donors entry is reported as “two”. In test [1] (donor 4), the “S.I. (stimulation index)” value turned out to be 3.5. In test [1] (donor 11), the “S.I. (stimulation index)” value is recorded as 2.3.

Consider “NGQEIAKFFLIVIQM [peptide 50, bouganin 15-mer peptide, first amino acid 148]”, for which, in test [1], the “presence of T cell epitope” value is “T cell epitopes” and the responsive donors came out at 2. The “S.I. (stimulation index)” value in test [1] (donor 4) is on record as 2.9. Besides, the “S.I. (stimulation index)” value in test [1] (donor 14) is listed as 2.0.

Regarding “YKLEFSIEAIHGKTI [compound 45, bouganin 15-mer peptide, first amino acid 133]”, the “T cell proliferation (in words)” value in test [1] is “lower level T cell proliferation”.

B1: VB6-845: cytotoxin: Fab version of an anti-Ep-CAM scFv antibody linked to Bou156 at the C-terminus of the CH domain via a furin linker (protein)
chain 1: EVQLVQSGPGLVQPGGSVRISCAASGYTFTNYGMNWVKQAPGKGLEWMGWINTYTGESTYADSFKGRFTFSLDTSASAAYLQINSLRAEDTAVYYCARFAIKGDYWGQGTLLTVSSASTKGPSVFPLAPSSKSTSGGTAALGCLVKDYFPEPVTVSWNSGALTSGVHTFPAVLQSSGLYSLSSVVTVPSSSLGTQTYICNVNHKPSNTKVDKKVEPKSCTRHRQPRGWEQLYNTVSFNLGEAYEYPTFIQDLRNELAKGTPVCQLPVTLQTIADDKRFVLVDITTTSKKTVKVAIDVTDVYVVGYQDKWDGKDRAVFLDKVPTVATSKLFPGVTNRVTLTFDGSYQKLVNAAKADRKALELGVNKLEFSIEAIHGKTINGQEAAKFFLIVIQMVSEAARFKYIETEVVDRGLYGSFKPNFKVLNLENNWGDISDAIHKSSPQCTTINPALQLISPSNDPWVVNKVSQISPDMGILKFKSSK
chain 2: HHHHHHDIQMTQSPSSLSASVGDRVTITCRSTKSLLHSNGITYLYWYQQKPGKAPKLLIYQMSNLASGVPSRFSSSGSGTDFTLTISSLQPEDFATYYCAQNLEIPRTFGQGTKVELKRTVAAPSVFIFPPSDEQLKSGTASVVCLLNNFYPREAKVQWKVDNALQSGNSQESVTEQDSKDSTYSLSSTLTLSKADYEKHKVYACEVTHQGLSSPVTKSFNRGEC
Regarding B1, the values for the IC50 in the test with HMEC, in the test on DAUDI and in the test with A-375 were 220 nM, more than 1000 nM and more than 1000 nM, respectively.
